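A five-concentration, 48-hour dose response in 96-well plates underlies each endpoint, interpolated linearly between surrounding concentrations. Here, GI50 denotes the concentration required for 50% inhibition of growth.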 The source made the active and inactive calls. No stated cut-off is given here; in the data, active = GI50 up to about 1.1 µM and inactive = higher.
What was measured:
Test in all cases: growth of human tumour cells (NCI), 48 h
A549 = test system: A549
MDA-N = test system: MDA-N
OVCAR-8 = test system: OVCAR-8
U-251 = test system: U-251
SK-MEL-2 = test system: SK-MEL-2
SK-MEL-28 = test system: SK-MEL-28
SF-539 = test system: SF-539
TK-10 = test system: TK-10
NCI-H23 = test system: NCI-H23
MDA-MB-231 = test system: MDA-MB-231
SNB-75 = test system: SNB-75
T47D = test system: T47D
OVCAR-4 = test system: OVCAR-4
ACHN = test system: ACHN
KM12 = test system: KM12
LOX IMVI = test system: LOX IMVI
NCI-H460 = test system: NCI-H460
OVCAR-5 = test system: OVCAR-5
UACC-62 = test system: UACC-62
SF-295 = test system: SF-295
DU-145 = test system: DU-145
COLO 205 = test system: COLO 205
M14 = test system: M14
MCF7 = test system: MCF7
RXF 393 = test system: RXF 393
SNB-19 = test system: SNB-19
HT-29 = test system: HT-29
HOP-92 = test system: HOP-92
CCRF-CEM = test system: CCRF-CEM
K562 = test system: K562
PC-3 = test system: PC-3
OVCAR-3 = test system: OVCAR-3
UO-31 = test system: UO-31
HOP-62 = test system: HOP-62
SW-620 = test system: SW-620
RPMI-8226 = test system: RPMI-8226
HCT-15 = test system: HCT-15
SK-MEL-5 = test system: SK-MEL-5
MDA-MB-435 = test system: MDA-MB-435
UACC-257 = test system: UACC-257
A498 = test system: A498
HCC 2998 = test system: HCC 2998
CAKI-1 = test system: CAKI-1
SK-OV-3 = test system: SK-OV-3
IGROV-1 = test system: IGROV-1
HCT-116 = test system: HCT-116
SN12C = test system: SN12C
NCI-H226 = test system: NCI-H226
HL-60 = test system: HL-60
SR = test system: SR
MOLT-4 = test system: MOLT-4
SF-268 = test system: SF-268
EKVX = test system: EKVX
786-0 = test system: 786-0
NCI/ADR-RES = test system: NCI/ADR-RES
Malme-3M = test system: Malme-3M
Hs-578T = test system: Hs-578T

With CCOC(=O)c1csc(NC(=O)C(C)N2CCCC2)n1 (configuration not stated) the GI50 (A549) was > 100 µM (inactive), the GI50 (MDA-N) was > 100 µM (inactive) and the GI50 (OVCAR-8) was > 100 µM (inactive). The GI50 (U-251) was > 100 µM (inactive), the GI50 (SK-MEL-2) was > 100 µM (inactive) and the GI50 (SK-MEL-28) was > 100 µM (inactive). The GI50 (SF-539) was > 100 µM (inactive), the GI50 (TK-10) was > 100 µM (inactive) and the GI50 (NCI-H23) was > 100 µM (inactive). The GI50 (MDA-MB-231) was > 100 µM (inactive), the GI50 (SNB-75) was > 100 µM (inactive) and the GI50 (T47D) was > 100 µM (inactive). For the same compound, the GI50 (OVCAR-4) was > 100 µM (inactive), the GI50 (ACHN) was > 100 µM (inactive) and the GI50 (KM12) was > 100 µM (inactive). The GI50 (LOX IMVI) was > 100 µM (inactive), the GI50 (NCI-H460) was > 100 µM (inactive) and the GI50 (OVCAR-5) was > 100 µM (inactive). For the same compound, the GI50 (UACC-62) was > 100 µM (inactive), the GI50 (SF-295) was > 100 µM (inactive) and the GI50 (DU-145) was > 100 µM (inactive). For the same compound, the GI50 (COLO 205) was > 100 µM (inactive), the GI50 (M14) was > 100 µM (inactive) and the GI50 (MCF7) was > 100 µM (inactive). For the same compound, the GI50 (RXF 393) was > 100 µM (inactive), the GI50 (SNB-19) was > 100 µM (inactive) and the GI50 (HT-29) was > 100 µM (inactive). For the same compound, the GI50 (HOP-92) was > 100 µM (inactive), the GI50 (CCRF-CEM) was > 100 µM (inactive) and the GI50 (K562) was > 100 µM (inactive). For the same compound, the GI50 (PC-3) was > 100 µM (inactive), the GI50 (OVCAR-3) was > 100 µM (inactive) and the GI50 (UO-31) was > 100 µM (inactive). For the same compound, the GI50 (HOP-62) was > 100 µM (inactive), the GI50 (SW-620) was > 100 µM (inactive) and the GI50 (RPMI-8226) was 19.3 µM (inactive). The GI50 (HCT-15) was greater than 100 µM, the GI50 (SK-MEL-5) was > 100 µM (inactive) and the GI50 (MDA-MB-435) was > 100 µM (inactive). The GI50 (UACC-257) was > 100 µM (inactive), the GI50 (A498) was > 100 µM (inactive) and the GI50 (HCC 2998) was > 100 µM (inactive). For the same compound, the GI50 (CAKI-1) was > 100 µM (inactive), the GI50 (SK-OV-3) was > 100 µM (inactive) and the GI50 (IGROV-1) was > 100 µM (inactive).

SC1=C2CCCCCC2=NC2(CCCCCC2)S1 was tested, and the GI50 (A549) was 24.5 µM (inactive), the GI50 (MDA-N) was 33.4 µM (inactive) and the GI50 (OVCAR-8) was 28.3 µM (inactive). For the same compound, the GI50 (U-251) was 32 µM (inactive), the GI50 (SK-MEL-2) was 6.3 µM (inactive) and the GI50 (SK-MEL-28) was 72.9 µM (inactive). The GI50 (SF-539) was 35.1 µM (inactive), the GI50 (TK-10) was 24.7 µM (inactive) and the GI50 (HCT-116) was 26.9 µM (inactive). For the same compound, the GI50 (NCI-H23) was 9.12 µM (inactive), the GI50 (MDA-MB-231) was 36.6 µM (inactive) and the GI50 (SNB-75) was 19.2 µM (inactive). For the same compound, the GI50 (SN12C) was 37.3 µM (inactive), the GI50 (T47D) was 17.4 µM (inactive) and the GI50 (OVCAR-4) was 16.9 µM (inactive). The GI50 (ACHN) was 13 µM (inactive), the GI50 (NCI-H226) was 12.4 µM (inactive) and the GI50 (KM12) was 18.4 µM (inactive). The GI50 (LOX IMVI) was 29.4 µM (inactive), the GI50 (NCI-H460) was 17.3 µM (inactive) and the GI50 (OVCAR-5) was 30.5 µM (inactive). The GI50 (UACC-62) was 26.8 µM (inactive), the GI50 (HL-60) was 12.1 µM (inactive) and the GI50 (SF-295) was 23.6 µM (inactive). The GI50 (DU-145) was 30.8 µM (inactive), the GI50 (COLO 205) was 17.7 µM (inactive) and the GI50 (M14) was 35.2 µM (inactive). The GI50 (SR) was 15.6 µM (inactive), the GI50 (MOLT-4) was 19 µM (inactive) and the GI50 (SF-268) was 41.7 µM (inactive). For the same compound, the GI50 (MCF7) was 19 µM (inactive), the GI50 (RXF 393) was 32.6 µM (inactive) and the GI50 (SNB-19) was 25.8 µM (inactive). For the same compound, the GI50 (HT-29) was 24.9 µM (inactive), the GI50 (HOP-92) was 21.1 µM (inactive) and the GI50 (CCRF-CEM) was 33.6 µM (inactive). The GI50 (K562) was 12.2 µM (inactive), the GI50 (PC-3) was 27.5 µM (inactive) and the GI50 (OVCAR-3) was 20.5 µM (inactive). The GI50 (UO-31) was 11.6 µM (inactive), the GI50 (HOP-62) was 31.7 µM (inactive) and the GI50 (SW-620) was 32.3 µM (inactive). For the same compound, the GI50 (RPMI-8226) was 18.5 µM (inactive), the GI50 (HCT-15) was 37.1 µM and the GI50 (EKVX) was 5.62 µM (inactive). The GI50 (786-0) was 33.1 µM (inactive), the GI50 (SK-MEL-5) was 11.2 µM (inactive) and the GI50 (MDA-MB-435) was 30.5 µM (inactive). For the same compound, the GI50 (UACC-257) was 11 µM (inactive), the GI50 (HCC 2998) was 23.3 µM (inactive) and the GI50 (CAKI-1) was 31.5 µM (inactive). For the same compound, the GI50 (NCI/ADR-RES) was 26.5 µM (inactive), the GI50 (Malme-3M) was 22 µM (inactive) and the GI50 (SK-OV-3) was 62.8 µM (inactive). For the same compound, the GI50 (IGROV-1) was 44.1 µM (inactive) and the GI50 (Hs-578T) was 11.6 µM (inactive).

With CC(=O)O/N=C/c1c2ccccc2cc2ccccc12 the GI50 (A549) was 47.9 µM (inactive), the GI50 (OVCAR-8) was 19.1 µM (inactive) and the GI50 (U-251) was 45.6 µM (inactive). For the same compound, the GI50 (SK-MEL-28) was 89.3 µM (inactive), the GI50 (SF-539) was 51.1 µM (inactive) and the GI50 (TK-10) was 83 µM (inactive). The GI50 (HCT-116) was 41.6 µM (inactive), the GI50 (NCI-H23) was 76.6 µM (inactive) and the GI50 (MDA-MB-231) was 20.9 µM (inactive). For the same compound, the GI50 (SNB-75) was 22.1 µM (inactive), the GI50 (SN12C) was 65.3 µM (inactive) and the GI50 (T47D) was 81.7 µM (inactive). For the same compound, the GI50 (ACHN) was 23.8 µM (inactive), the GI50 (NCI-H226) was 46.9 µM (inactive) and the GI50 (KM12) was 61.8 µM (inactive). The GI50 (LOX IMVI) was > 100 µM (inactive), the GI50 (NCI-H460) was 51.8 µM (inactive) and the GI50 (OVCAR-5) was > 100 µM (inactive). For the same compound, the GI50 (UACC-62) was 40.9 µM (inactive), the GI50 (HL-60) was > 100 µM (inactive) and the GI50 (SF-295) was 47.4 µM (inactive). The GI50 (DU-145) was > 100 µM (inactive), the GI50 (COLO 205) was > 100 µM (inactive) and the GI50 (M14) was > 100 µM (inactive). For the same compound, the GI50 (SR) was 28 µM (inactive), the GI50 (MOLT-4) was > 100 µM (inactive) and the GI50 (SF-268) was 61.1 µM (inactive). The GI50 (MCF7) was 78.2 µM (inactive), the GI50 (RXF 393) was 21.7 µM (inactive) and the GI50 (SNB-19) was 50.5 µM (inactive). The GI50 (HT-29) was 57.7 µM (inactive), the GI50 (HOP-92) was > 100 µM (inactive) and the GI50 (CCRF-CEM) was > 100 µM (inactive). For the same compound, the GI50 (K562) was 85.7 µM (inactive), the GI50 (PC-3) was > 100 µM (inactive) and the GI50 (OVCAR-3) was > 100 µM (inactive). For the same compound, the GI50 (UO-31) was 36.2 µM (inactive), the GI50 (HOP-62) was 30 µM (inactive) and the GI50 (SW-620) was 50.8 µM (inactive). For the same compound, the GI50 (RPMI-8226) was 51.6 µM (inactive), the GI50 (HCT-15) was 56.1 µM and the GI50 (EKVX) was 27.5 µM (inactive). The GI50 (SK-MEL-5) was 58.9 µM (inactive), the GI50 (MDA-MB-435) was 38 µM (inactive) and the GI50 (UACC-257) was > 100 µM (inactive). The GI50 (A498) was 24.9 µM (inactive), the GI50 (CAKI-1) was 82.4 µM (inactive) and the GI50 (NCI/ADR-RES) was 56.8 µM (inactive). The GI50 (Malme-3M) was 47 µM (inactive), the GI50 (SK-OV-3) was 22.2 µM (inactive) and the GI50 (Hs-578T) was 67.1 µM (inactive).

— ChEMBL document CHEMBL1201862, “PubChem BioAssay data set” (2004)
